Reference: patent US8575364B2, “Modulators of serotonin receptor” (Janssen Pharmaceutica NV, priority 2008, dated 2013)
Counter-ions that a name gives are not always drawn.

How the values were obtained:
rat 5-HT7 receptors = rat 5-HT7 receptors (Rattus norvegicus (Rat), UniProt P32305); assay: r5-HT7 competitive radioligand binding assay ([3H]5-CT); conditions: membrane fractions of HEK-293 cells recombinantly expressing rat 5-HT7
Method: Compound affinity for the rat 5-HT7 receptor subtype was evaluated by competitive radioligand binding assays using 5-carboxamido[^3H]tryptamine ([^3H]5-CT) (Amersham Biosciences, cat. 90000403) detection. HitHunter™ cAMP assays are in-vitro based competitive immunoassays. […] Cells were pre-incubated with test compounds for 10 minutes. For agonistic testing, the concentration of test compound that produced a half-maximal response is represented by the EC50 value. Compounds were assayed in their free form or as salts, as indicated in the Examples section above.

r5-HT7 receptor = r5-HT7 receptor (Rattus norvegicus (Rat), UniProt P32305); assay: HitHunter cAMP assay, agonistic testing; type: cell-based; conditions: HEK-293 cells stably transfected with r5-HT7 receptor
r5-HT7 receptor, sequence (P32305 1-435): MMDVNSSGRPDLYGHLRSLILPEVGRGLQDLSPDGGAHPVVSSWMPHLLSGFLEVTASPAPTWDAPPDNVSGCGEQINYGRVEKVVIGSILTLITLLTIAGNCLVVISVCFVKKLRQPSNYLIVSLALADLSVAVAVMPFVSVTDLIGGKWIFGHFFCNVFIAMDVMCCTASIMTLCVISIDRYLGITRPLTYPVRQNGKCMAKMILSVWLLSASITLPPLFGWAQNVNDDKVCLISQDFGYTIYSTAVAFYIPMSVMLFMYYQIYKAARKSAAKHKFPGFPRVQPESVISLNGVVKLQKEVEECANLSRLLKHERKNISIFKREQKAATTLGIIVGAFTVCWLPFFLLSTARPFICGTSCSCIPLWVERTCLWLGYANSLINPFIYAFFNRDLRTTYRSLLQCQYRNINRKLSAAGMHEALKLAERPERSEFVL
Method: Receptor binding was performed using membrane fractions prepared from the HEK-293 cell line recombinantly expressing rat 5-HT7 receptors (NCBI accession NM_022938). Compound affinity for the rat 5-HT7 receptor subtype was evaluated by competitive radioligand binding assays using 5-carboxamido[^3H]tryptamine ([^3H]5-CT) (Amersham Biosciences, cat. 90000403) detection. HitHunter™ cAMP assays are in-vitro based competitive immunoassays. The assay was performed on the HEK-293 cell line stably transfected with r5-HT7 receptor. Cells were pre-incubated with test compounds for 10 minutes. For agonistic testing, the concentration of test compound that produced a half-maximal response is represented by the EC50 value. Compounds were assayed in their free form or as salts, as indicated in the Examples section above.

rat 5-HT7 receptors, sequence (P32305 1-435): as above

| SMILES | Ki (rat 5-HT7 receptors) | EC50 (r5-HT7 receptor) |
| --- | --- | --- |
| COc1ccc(-c2ccccc2C)cc1OC1CNC1 [Example 8, 3-(4-Methoxy-2′-methyl-biphenyl-3-yloxy)-azetidine trifluoroacetate] | 13.5 nM | 794 nM |
| COc1ccc(-c2ccccc2C(F)(F)F)cc1OC1CNC1 [Example 1, 3-(4-Methoxy-2′-trifluoromethyl-biphenyl-3-yloxy)-azetidine] | 3.79 nM | 200 nM |
| COc1ccc(-c2cccc(F)c2C)cc1OC1CNC1 [Example 5, 3-(3′-Fluoro-4-methoxy-2′-methyl-biphenyl-3-yloxy)-azetidine] | 19 nM | 1580 nM |
| COc1ccc(-c2ccccc2Cl)cc1OC1CNC1 [Example 17, 3-(2′-Chloro-4-methoxy-biphenyl-3-yloxy)-azetidine] | 4.42 nM | 794 nM |
| COc1ccc(-c2cccc(C)c2C)cc1OC1CNC1 [Example 4, 3-(4-Methoxy-2′,3′-dimethyl-biphenyl-3-yloxy)-azetidine] | 11 nM | 631 nM |

The remaining compounds from weak to strong by Ki (rat 5-HT7 receptors), led by results:

| Ki (rat 5-HT7 receptors) | EC50 (r5-HT7 receptor) | SMILES |
| --- | --- | --- |
| 1700 nM |  | COc1ccc(C)cc1-c1ccccc1C1CCNC1 (racemic) [Example 63, (±)-3-(2′-Methoxy-5′-methyl-biphenyl-2-yl)-pyrrolidine] |
| 755 nM |  | Cc1ccccc1-c1ccc(OCC2CC2)c(OC2CNC2)c1 [Example 35, 3-(4-Cyclopropylmethoxy-2′-methyl-biphenyl-3-yloxy)-azetidine] |
| 380 nM |  | Cc1cc(-c2ccc(Cl)cc2C2CCNC2)ccc1F (racemic) [Example 66, (±)-3-(4-Chloro-4′-fluoro-3′-methyl-biphenyl-2-yl)-pyrrolidine] |
| 300 nM |  | COc1ccccc1-c1ccccc1C1CCNC1 (racemic) [Example 61, (±)-3-(2′-Methoxy-biphenyl-2-yl)-pyrrolidine] |
